1 compound from publication PMC4923153, “Protection of Primary Dopaminergic Midbrain Neurons by GPR139 Agonists Supports Different Mechanisms of MPP^+ and Rotenone Toxicity” (Frontiers in Cellular Neuroscience, 2016) can be followed below.

One assay deals with DAT (Homo sapiens, UniProt Q01959). Description: Inhibition of binding to the DAT (cross reactivity). Particulars: concentration not given. Here is the method: None of the compounds were useful in vivo tools due to their unfavorable ADME properties including low whole brain exposure and brain/plasma ratio (Shi et al., [2011]). Cross reactivity with the DAT or the norepinephrine transporter was determined as described (Shi et al., [2011]).
Chain of DAT (Q01959 whole entry, species assumed): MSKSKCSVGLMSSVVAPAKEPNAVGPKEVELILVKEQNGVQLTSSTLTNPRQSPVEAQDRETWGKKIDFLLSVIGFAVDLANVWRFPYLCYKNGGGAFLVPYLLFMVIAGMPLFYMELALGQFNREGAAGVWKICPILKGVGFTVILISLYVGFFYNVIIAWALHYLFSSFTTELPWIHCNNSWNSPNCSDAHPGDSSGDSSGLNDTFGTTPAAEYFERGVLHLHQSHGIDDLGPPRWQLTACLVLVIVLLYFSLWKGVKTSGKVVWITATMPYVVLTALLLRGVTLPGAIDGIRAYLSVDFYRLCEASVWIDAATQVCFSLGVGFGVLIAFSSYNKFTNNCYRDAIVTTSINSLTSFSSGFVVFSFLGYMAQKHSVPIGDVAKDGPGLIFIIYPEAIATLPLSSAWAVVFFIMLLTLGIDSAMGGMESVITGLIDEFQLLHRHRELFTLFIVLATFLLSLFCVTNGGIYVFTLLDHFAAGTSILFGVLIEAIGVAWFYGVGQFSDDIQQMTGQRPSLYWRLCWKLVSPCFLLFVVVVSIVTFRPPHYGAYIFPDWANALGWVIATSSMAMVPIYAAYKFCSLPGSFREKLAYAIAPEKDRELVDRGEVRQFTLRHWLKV
As both 6-OHDA and MPP^+ are taken up via the DAT, it was not likely that the agonists mediated their protection against MPP^+ by merely blocking the DAT. However, to further exclude the possibility that the protection against MPP^+ by the agonist compound 3 is mediated by blocking MPP^+ uptake, rather than signaling through GPR139, DA and noradrenaline uptake in the presence of the agonist was tested. […] Ten micrometres (10 μM) compound 1 inhibited binding to the DAT or the norepinephrine transporter by 4% or −8%, respectively (Shi et al., [2011]) compound 2 inhibited binding to the DAT or the norepinephrine transporter 2% or −4%, respectively.

For assay [1], the system named is primary DA midbrain neurons. The assay is described as follows: Protection of primary DA midbrain neurons against MPP+ toxicity (TH-positive neuron count). It counts as cell-based, mice. Particulars: 1 μM MPP+ 24 h. How it is done:
Experiments were conducted in accordance with the ethical guidelines of H. Lundbeck A/S and the Danish legislation of animal use for scientific procedures. Cell culture was basically performed as described (Nagel et al., [2008]), with few modifications. Briefly, the mesencephalon floor was dissected from embryonic day (E) 13 mice, tissue pieces collected in HBBS, transferred to 0.1% trypsin, 0.05% DNAse (Sigma-Aldrich DN25–1G) and incubated at 37°C in a humidified atmosphere with 5% CO2 for 20 min; washed in DNAse, homogenized and centrifuged at 200× g, resuspended in medium (DMEM (Gibco 41965–039), 10% FCS, 1% P/S (Gibco, 15140–122), l.5% HEPES (Gibco, 15630–056), 1% Sodium Pyruvate (Gibco, 11360–039)) and plated on poly-L-lysine coated 96-well dishes. The medium was switched to neurobasal medium after 90 min (neurobasal (Gibco 21103–049) with 1% P/S, 2% B27 (Gibco, 17504–044), 1.25% 0.5 mM L-glutamine (Gibco, 25030–024)). After 6 days in vitro (DIV), cultures were treated with 1 μM of three different GPR139 agonists and in some experiments, concomitantly, with 10 μM of the antagonist for1 h, before exposing them to 0–1 μM MPP^+, 0–50 μM 6-OHDA or 0–100 nM rotenone for 24 h. For the MPP^+ treated cultures, it was also tested whether the effect of the GPR139 agonists could be blocked by concomitantly applying 10 μM GPR139 antagonist (IC50 3 μM). Subsequently, cells were fixed in 4% PFA/PBS for 10 min, washed with PBS, incubated in 0.5% BSA/0.1% Triton-X/5% porcine serum for 20 min, and incubated for 24 h in rabbit anti-tyrosine hydroxylase antibodies (1:1000 in PBS, Millipore AB152); washed 2 × 5 min in PBS. Secondary antibodies (Alexa 488 rabbit) were applied 1:200 in PBS with 0.2 μg/ml Hoechst dye for 1 h and washed 2 × 5 min in PBS. One drop of DAKO fluorescent mounting medium were applied into each well. Plates were stored at 4°C until tyrosine-hydroxylase-positive (TH-positive) neurons were counted using a Thermo Scientific Cellomics® ArrayScan® VTI HCS Reader. Results were normalized against control condition and compared. Experiments were only included in the evaluation if at least 30% cell death was induced at the highest toxin concentration compared to non-treated control wells. To ensure that only healthy primary cultures were assessed, we furthermore excluded experiments with total cell counts below Mean minus standard deviation (SD) of the summarized experiments. […]
To examine whether GPR139 agonists protect against toxin-induced DA cell death, we first treated cultured DA midbrain neurons with the GPR139 agonists and MPP^+ . Subsequently, we determined survival of TH-positive neurons.
Figure 8 Three different GPR139 surrogate agonists protect primary dopaminergic (DA) midbrain neurons against 1-methyl-4-phenyl-pyridinium ionMPP^+ toxicity. […] TH-positive neurons were counted and normalized to numbers under control conditions. […] Each data point is calculated from 12 (0 μM and 1 μM MPP^+ concentrations); 4 (0.125 μM); 7 (0.25 μM); or 8 (0.5 μM) independent measurements.
Primary midbrain cultures were pretreated with the indicated amount of GPR139 agonist compound 3 and with either vehicle ( [drawing 5] ), or 1 μM MPP^+ ( [drawing 6] ); or MPP^+ with 10 μM of the antagonist compound 4 ( [drawing 7] ), or with the antagonist compound 4 alone ( [drawing 8] ). The number of TH-positive neurons was determined 24 h later and normalized to control conditions. […]

Assay [2] has as its system primary DA midbrain neurons. The assay is described as follows: Protection of primary DA midbrain neurons against rotenone toxicity (TH-positive neuron count). It counts as cell-based, mice. Conditions: 1 μM agonist 1 h, 0-100 nM rotenone 24 h, n = 4. Here is the method:
Experiments were conducted in accordance with the ethical guidelines of H. Lundbeck A/S and the Danish legislation of animal use for scientific procedures. Cell culture was basically performed as described (Nagel et al., [2008]), with few modifications. […] Plates were stored at 4°C until tyrosine-hydroxylase-positive (TH-positive) neurons were counted using a Thermo Scientific Cellomics® ArrayScan® VTI HCS Reader. […] To ensure that only healthy primary cultures were assessed, we furthermore excluded experiments with total cell counts below Mean minus standard deviation (SD) of the summarized experiments. […]
Mesencephalic cultures were treated with 1 μM of either one of the GPR139 agonists compound 1 ( [drawing 13] ), compound 2 ( [drawing 14] ), or compound 3 ( [drawing 15] ), or vehicle ( [drawing 16] ) for 1 h before exposing them to 0–100 nM of rotenone. […] TH-positive neurons were counted and normalized to control numbers (100%).

As for `CN(C)C1CCN(C(=O)CNC(=O)Cc2cccc3ccccc23)C1` (stereo not shown) [compound 2, N-[2-(3-Dimethylamino-pyrrolidin-1-yl)-2-oxo-ethyl]-2-Naphthalen-1-yl-acetamide], the “inhibition of binding to the DAT” value at DAT came to 2%. Besides, the “protection against MPP+ toxicity” value in assay [1] (1 μM agonist 1 h, p ≤ 0.05 vs vehicle) is listed as “significant”. The “cells killed by 1 μM MPP+ that were rescued” value in assay [1] (1 μM compound pre-incubation 1 h, TH-positive neurons) was found to be 40.5%. The “protection against rotenone toxicity” value in assay [2] is reported as “do not protect”.
